# Results from patent US20260274875A1, “[…] COMPOUNDS, PREPARATION METHOD AND USE THEREOF” (HC SYNTHETIC PHARMACEUTICAL CO., LTD., priority 2022, published 2026).
# Where two headings read alike, the source gives them in different places.
# Key:
# [1] = Solubility in water, methanol and isopropanol; assay type: physicochemical
# Protocol: The solubility in water, methanol, and isopropanol of the compounds of the present disclosure and the comparative compounds were measured separately.
# [2] = system: histamine-induced asthma in guinea pigs; assay: Antiasthmatic effect on histamine-induced asthma in guinea pigs; assay type: in vivo, guinea pig; conditions: 60 min after 1 mg/kg oral gavage; histamine hydrochloride spray; no asthma within 8 min counted as 8 min; X ± s, n = 5
# Protocol: The time point at which the guinea pigs developed asthma was recorded. The time of convulsion and fall was taken as the latency period. Guinea pigs with a latency period exceeding 180 seconds were not selected. […] The guinea pigs were administered by oral gavage at a dose of 2 mL/kg·bw. Sixty minutes after the administration, the guinea pigs were placed in bell jars, and histamine hydrochloride solution was sprayed under the same conditions as in the previous selection. The latency period for the onset of asthma was recorded. […] The results were processed statistically.
# [3] = system: isolated ileal smooth muscle of guinea pigs; assay: Muscle tone of isolated ileal smooth muscle of guinea pigs (compound alone); design: species or system guinea pig; conditions: 5 minutes after adding drug, no histamine; X ± s, n = 8
# Protocol: (§1) The guinea pig was knocked unconscious with a wooden stick, and the abdomen was immediately dissected to separate the ileum about 15 cm in length. The contents of the intestinal segment were flushed with Tyrode's solution and placed in Tyrode's solution at a constant temperature of 37° C. for later use, and oxygen was supplied simultaneously. The experimental intestinal tract (1 cm in length) was cut and placed into 20 ml of Tyrode's solution at a constant temperature of 37° C. with a continuous oxygen supply. One end of the intestine was fixed on the ventilation hook and the other end was connected to the muscle tone transducer and led to the computer interface. The muscle tone value of the ileal smooth muscle was recorded with a BL system. The experiment was carried out after the intestinal segment contraction became stable. […] The operation was repeated 8 times. The antispasmodic percentage was calculated according to the following formula. [formula]
# [4] = Accelerated stability test; assay type: physicochemical; conditions: 40° C.±2° C., RH 75%±5%
# Protocol: The compound of the present disclosure was placed at a temperature of 40° C.±2° C. and a relative humidity of 75%±5% for 6 months, and samples were taken to determine for the descriptions, related substances, and contents.
# [5] = system: histamine-contracted isolated ileal smooth muscle of guinea pigs; assay: Muscle tone of isolated ileal smooth muscle of guinea pigs contracted with histamine; design: species or system guinea pig; conditions: 3 minutes after adding 0.05 mL compound to histamine-contracted ileum; x ± s, n = 8
# Protocol: as §1, with “using” for “according to”, “equation.” for “formula. [formula]”
# [6] = organic solvent or mixture, solvent isopropanol, read-out: Solubility, Isopropanol
# [7] = organic solvent or mixture, solvent methanol, read-out: Solubility, Methanol
# [8] = water, solvent water, read-out: Solubility, Water
# [9] = methanol, organic solvent or mixture, solvent methanol, read-out: Solubility, Methanol
# [10] = isopropanol, organic solvent or mixture, solvent isopropanol, read-out: Solubility, Isopropanol
"solubility [1, 8]","solubility [1, 9]","solubility [1, 10]",SMILES,also measured
30 mg/mL,40 mg/mL,–,O=P(O)(O)OCCCN1CCC(=C2c3ccc(Cl)cc3CCc3cccnc32)CC1 [Compound III-7],–
30 mg/mL,40 mg/mL,22 mg/mL,O=P(O)(O)OCCCN1CCC(=C2c3ccc(F)cc3CCc3cccnc32)CC1 [Compound III-8],Post-administration latency period [2]: 370.94 ± 50.29 s
30 mg/mL,40 mg/mL,22 mg/mL,O=P(O)(O)OCCCN1CCC(=C2c3ccc(Br)cc3CCc3cccnc32)CC1 [Compound III-9],–
30 mg/mL,43 mg/mL,–,O=P(O)(O)OCCCCN1CCC(=C2c3ccc(Cl)cc3CCc3cccnc32)CC1 [Compound III-10],Antispasmodic percentage (%) [3]: 35.75 ± 19.99%
30 mg/mL,43 mg/mL,25 mg/mL,O=P(O)(O)OCCCCN1CCC(=C2c3ccc(F)cc3CCc3cccnc32)CC1 [Compound III-11],Antispasmodic percentage (%) [3]: 31.58 ± 18.30%
32 mg/mL,43 mg/mL,25 mg/mL,O=P(O)(O)OCCCCN1CCC(=C2c3ccc(Br)cc3CCc3cccnc32)CC1 [Compound III-12],–
32 mg/mL,44 mg/mL,–,O=P(O)(O)OCCCCCN1CCC(=C2c3ccc(Cl)cc3CCc3cccnc32)CC1 [Compound III-13],–
32 mg/mL,44 mg/mL,25 mg/mL,O=P(O)(O)OCCCCCN1CCC(=C2c3ccc(F)cc3CCc3cccnc32)CC1 [Compound III-14],Content ([4]; Month 2): 99.5%; Content ([4]; Month 3): 99.5%
32 mg/mL,44 mg/mL,25 mg/mL,O=P(O)(O)OCCCCCN1CCC(=C2c3ccc(Br)cc3CCc3cccnc32)CC1 [Compound III-15],–
30 mg/mL,42 mg/mL,25 mg/mL,O=P(O)(O)OCOCCCN1CCC(=C2c3ccc(Cl)cc3CCc3cccnc32)CC1 [Compound III-17],–
30 mg/mL,42 mg/mL,25 mg/mL,O=P(O)(O)OCOCCCCN1CCC(=C2c3ccc(Cl)cc3CCc3cccnc32)CC1 [Compound III-18],Content ([4]; Month 3): 99.5%
30 mg/mL,42 mg/mL,25 mg/mL,O=P(O)(O)OCOCCCCCN1CCC(=C2c3ccc(Cl)cc3CCc3cccnc32)CC1 [Compound III-19],–
432 mg/mL,44 mg/mL,–,O=P([O-])([O-])OCN1CCC(=C2c3ccc(Cl)cc3CCc3cccnc32)CC1.[Na+].[Na+] [Compound IV-1],–
–,20 mg/mL,1 mg/mL,O=P([O-])([O-])OCCCCN1CCC(=C2c3ccc(Cl)cc3CCc3cccnc32)CC1.[Na+].[Na+] [Compound IV-4],Content ([4]; Month 1): 99.6%; Content ([4]; Month 2): 99.6%; Content ([4]; Month 3): 99.6%
–,–,–,O=P(O)(O)OCCCCCN1CCC(=C2c3ccc(Cl)cc3CCc3cccnc32)CC1 [Compound IV-7],Content ([4]; Month 3): 99.5%
–,–,–,O=P(O)(O)OCOCCN1CCC(=C2c3ccc(Cl)cc3CCc3cccnc32)CC1 [Compound IV-8],Smooth muscle tone (g) After administration [5]: 1.19 ± 0.28 g; Content ([4]; Month 3): 99.5%
411 mg/mL,27 mg/mL,2 mg/mL,O=P([O-])([O-])OCOCCCN1CCC(=C2c3ccc(Cl)cc3CCc3cccnc32)CC1.[Na+].[Na+] [Compound IV-9],Content ([4]; Month 1): 99.7%; Content ([4]; Month 2): 99.7%; Content ([4]; Month 3): 99.7%
401 mg/mL,27 mg/mL,2 mg/mL,O=P([O-])([O-])OCOCCCCN1CCC(=C2c3ccc(Cl)cc3CCc3cccnc32)CC1.[Na+].[Na+] [Compound IV-10],–
390 mg/mL,27 mg/mL,2 mg/mL,O=P([O-])([O-])OCOCCCCCN1CCC(=C2c3ccc(Cl)cc3CCc3cccnc32)CC1.[Na+].[Na+] [Compound IV-11],Smooth muscle tone (g) After administration [5]: 1.18 ± 0.28 g
–,–,–,"OCCCCCCN1CCC(=C2c3ccc(Cl)cc3CCc3cccnc32)CC1 [Hydroxyhexyl desloratadine, Hydroxyhexyl Desloratadine]",Antispasmodic percentage (%) [5]: 58.30 ± 14.11%
–,–,–,"OCCCCCN1CCC(=C2c3ccc(Cl)cc3CCc3cccnc32)CC1 [Hydroxypentyl desloratadine, Hydroxypentyl Desloratadine]",Antispasmodic percentage (%) [5]: 58.53 ± 12.34%
–,–,–,"OCCCN1CCC(=C2c3ccc(Cl)cc3CCc3cccnc32)CC1 [Hydroxypropyl desloratadine, Hydroxypropyl Desloratadine]",Antispasmodic percentage (%) [5]: 58.77 ± 13.82%

SMILES,"solubility [1, 8]","solubility [1, 9]","solubility [1, 10]",also measured
O=P(O)(O)OCCN1CCC(=C2c3ccc(Cl)cc3CCc3cccnc32)CC1 [Compound III-4],28 mg/mL,–,–,"solubility [1, 6]: 22 mg/mL; solubility [1, 7]: 38 mg/mL"
O=P(O)(O)OCCN1CCC(=C2c3ccc(F)cc3CCc3cccnc32)CC1 [Compound III-5],28 mg/mL,–,–,"solubility [1, 6]: 22 mg/mL; solubility [1, 7]: 40 mg/mL"
O=P(O)(O)OCCN1CCC(=C2c3ccc(Br)cc3CCc3cccnc32)CC1 [Compound III-6],28 mg/mL,–,–,"solubility [1, 6]: 22 mg/mL; solubility [1, 7]: 40 mg/mL"
O=P([O-])([O-])OCCN1CCC(=C2c3ccc(Cl)cc3CCc3cccnc32)CC1.[K+].[K+] [Compound IV-2],389 mg/mL,23 mg/mL,1 mg/mL,Content ([4]; Month 1): 99.6%; Content ([4]; Month 3): 99.5%
